In patent US6737383B1, “Herbicidal oxadiazolidines” (priority 1999, dated 2004):

Assays:
sugar beet = test: Test B pre/postemergence sugar beet; format: in vivo, Beta vulgaris
Summary of the method: (§1)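 Herbicidal effect was estimated by eye on a ten-point control scale after plants spent twelve to sixteen days in a greenhouse following soil or foliar treatment. Foliar sprays targeted plants at one to four leaves; all doses were formulated in a non-phytotoxic solvent with surfactant.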

giant foxtail = test: Test B pre/postemergence giant foxtail; format: in vivo, Setaria faberii
Summary of the method: as §1

smallflower flatsedge = test: Test B flood test smallflower flatsedge; format: in vivo, Cyperus difformis
Summary of the method: (§2)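 Flood test on plants grown to the 2-leaf stage; treated plants kept in greenhouse twelve to sixteen days, then visually rated against controls on a 0 (no effect) to 10 (complete control) scale.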

wild oat = test: Test B pre/postemergence wild oat; format: in vivo, Avena fatua
Summary of the method: as §1

surinam grass = test: Test B pre/postemergence surinam grass; format: in vivo, Brachiaria decumbens
Summary of the method: as §1

velvetleaf = test: Test B pre/postemergence velvetleaf; format: in vivo, Abutilon theophrasti
Summary of the method: as §1

purple nutsedge = test: Test B pre/postemergence purple nutsedge; format: in vivo, Cyperus rotundus
Summary of the method: as §1

morningglory = test: Test B pre/postemergence morningglory; format: in vivo, Ipomoea hederacea
Summary of the method: as §1

soybean = test: Test B pre/postemergence soybean; format: in vivo, Glycine max
Summary of the method: as §1

cocklebur = test: Test B pre/postemergence cocklebur; format: in vivo, Xanthium strumarium
Summary of the method: as §1

pigweed = test: Test B pre/postemergence pigweed; format: in vivo, Amaranthus retroflexus
Summary of the method: as §1

corn = test: Test B pre/postemergence corn; format: in vivo, Zea mays
Summary of the method: as §1

bamyardgrass = test: Test B flood test barnyardgrass; format: in vivo, Echinochloa crus-galli
Summary of the method: as §2

blackgrass = test: Test B pre/postemergence blackgrass; format: in vivo, Alopecurus myosuroides
Summary of the method: as §1

crabgrass = test: Test B pre/postemergence crabgrass; format: in vivo, Digitaria sanguinalis
Summary of the method: as §1

rape = test: Test B pre/postemergence rape; format: in vivo, Brassica napus
Summary of the method: as §1

[1] = Postemergence, Rate 62 g/ha, scale 0 to 10, 0 is no effect, 10 is complete control
[2] = Postemergence, Rate 250 g/ha, scale 0 to 10, 0 no effect, 10 complete control
[3] = Preemergence, Rate 62 g/ha, scale 0 to 10 (0 no effect, 10 complete control)
[4] = Preemergence, Rate 125 g/ha, scale 0 to 10 (0 no effect, 10 complete control)
[5] = Preemergence, Rate 250 g/ha, scale of 0 to 10 where 0 is no effect and 10 is complete control
[6] = Preemergence, Rate 500 g/ha, scale 0 (no effect) to 10 (complete control)
[7] = Rate 125 g/ha, Postemergence, scale 0 to 10, 0 no effect, 10 complete control
[8] = Rate 500 g/ha, Postemergence, scale 0 to 10, 0 no effect, 10 complete control
[9] = Rate 125 g/ha, Postemergence section (flood test species), scale 0 to 10, 0 no effect, 10 complete control
[10] = Rate 250 g/ha, headed Pre-emergence (flood test species), scale 0 to 10 (0 no effect, 10 complete control)
[11] = Rate 500 g/ha, headed Pre-emergence (flood test species), scale 0 to 10 (0 no effect, 10 complete control)
[12] = Rate 500 g/ha, listed under Postemergence (flood test species), scale 0 to 10, 0 no effect, 10 complete control
[13] = flood test, listed under Postemergence, Rate 250 g/ha, scale 0 to 10, 0 no effect, 10 complete control

CC(C)N(C(=O)n1oc(=O)n(Cc2ccccc2)c1=O)c1ccc(F)cc1 [Compound 78]
Sugarbeets plant response rating (sugar beet; [1]): 2
Sugarbeets plant response rating (sugar beet; [2]): 4
Sugarbeets plant response rating (sugar beet; [3]): 0
Plant response rating, Sugarbeets (sugar beet; [4]): 0
Plant response rating, Sugarbeets (sugar beet; [5]): 5
Sugarbeets plant response rating (sugar beet; [6]): 5
Sugarbeets plant response rating (sugar beet; [7]): 4
Sugarbeets plant response rating (sugar beet; [8]): 7
Giant foxtail plant response rating (giant foxtail; [1]): 0
Giant foxtail plant response rating (giant foxtail; [2]): 3
Giant foxtail plant response rating (giant foxtail; [3]): 8
Plant response rating, Giant foxtail (giant foxtail; [4]): 8
Plant response rating, Giant foxtail (giant foxtail; [5]): 9
Giant foxtail plant response rating (giant foxtail; [6]): 9
Giant foxtail plant response rating (giant foxtail; [7]): 3
Giant foxtail plant response rating (giant foxtail; [8]): 4
S. Flatsedge plant response rating (smallflower flatsedge; [1]): 0
S. Flatsedge plant response rating (smallflower flatsedge; Pre-emergence, Rate 1000 g/ha, scale 0 to 10 (0 no effect, 10 complete control)): 0
S. Flatsedge plant response rating (smallflower flatsedge; [9]): 0
S. Flatsedge plant response rating (smallflower flatsedge; [10]): 0
Plant response rating, S. Flatsedge (smallflower flatsedge; [11]): 0
S. Flatsedge plant response rating (smallflower flatsedge; [12]): 4
S. Flatsedge plant response rating (smallflower flatsedge; Rate 2000 g/ha, Pre-emergence (as headed), scale 0 to 10): 7
S. Flatsedge plant response rating (smallflower flatsedge; [13]): 0
Wild oats plant response rating (wild oat; [1]): 0
Wild oats plant response rating (wild oat; [2]): 0
Wild oats plant response rating (wild oat; [3]): 0
Plant response rating, Wild oats (wild oat; [4]): 2
Plant response rating, Wild oats (wild oat; [5]): 6
Wild oats plant response rating (wild oat; [6]): 6
Wild oats plant response rating (wild oat; [7]): 0
Wild oats plant response rating (wild oat; [8]): 2
B. signalgrass plant response rating (surinam grass; [1]): 0
B. signalgrass plant response rating (surinam grass; [2]): 4
B. signalgrass plant response rating (surinam grass; [3]): 0
Plant response rating, B. signalgrass (surinam grass; [4]): 1
Plant response rating, B. signalgrass (surinam grass; [5]): 5
B. signalgrass plant response rating (surinam grass; [6]): 9
B. signalgrass plant response rating (surinam grass; [7]): 0
B. signalgrass plant response rating (surinam grass; Rate 500 g/ha, Postemergence, scale of 0 to 10 where 0 is no effect and 10 is complete control): 6
Velvetleaf plant response rating (velvetleaf; [1]): 2
Velvetleaf plant response rating (velvetleaf; [2]): 3
Velvetleaf plant response rating (velvetleaf; [3]): 0
Plant response rating, Velvetleaf (velvetleaf; [4]): 0
Plant response rating, Velvetleaf (velvetleaf; [5]): 2
Velvetleaf plant response rating (velvetleaf; [6]): 7
Velvetleaf plant response rating (velvetleaf; [7]): 2
Velvetleaf plant response rating (velvetleaf; [8]): 4
Nutsedge plant response rating (purple nutsedge; [1]): 0
Nutsedge plant response rating (purple nutsedge; [2]): 0
Nutsedge plant response rating (purple nutsedge; [3]): 0
Plant response rating, Nutsedge (purple nutsedge; [4]): 0
Plant response rating, Nutsedge (purple nutsedge; [5]): 0
Nutsedge plant response rating (purple nutsedge; [6]): 0
Nutsedge plant response rating (purple nutsedge; [7]): 0
Nutsedge plant response rating (purple nutsedge; [8]): 0
Morningglory plant response rating (morningglory; [1]): 7
Morningglory plant response rating (morningglory; [2]): 10
Morningglory plant response rating (morningglory; [3]): 0
Plant response rating, Morningglory (morningglory; [4]): 0
Plant response rating, Morningglory (morningglory; [5]): 0
Morningglory plant response rating (morningglory; [6]): 0
Morningglory plant response rating (morningglory; [7]): 8
Morningglory plant response rating (morningglory; [8]): 10
Soybean plant response rating (soybean; [1]): 1
Soybean plant response rating (soybean; [2]): 2
Soybean plant response rating (soybean; [3]): 0
Plant response rating, Soybean (soybean; [4]): 0
Plant response rating, Soybean (soybean; [5]): 0
Soybean plant response rating (soybean; [6]): 0
Soybean plant response rating (soybean; [7]): 1
Soybean plant response rating (soybean; [8]): 4
Cocklebur plant response rating (cocklebur; [2]): 2
Cocklebur plant response rating (cocklebur; [3]): 0
Plant response rating, Cocklebur (cocklebur; [4]): 0
Plant response rating, Cocklebur (cocklebur; [5]): 0
Cocklebur plant response rating (cocklebur; [6]): 0
Cocklebur plant response rating (cocklebur; [7]): 2
Cocklebur plant response rating (cocklebur; [8]): 3
Redroot pigweed plant response rating (pigweed; [1]): 2
Redroot pigweed plant response rating (pigweed; [2]): 3
Redroot pigweed plant response rating (pigweed; [3]): 0
Plant response rating, Redroot pigweed (pigweed; [4]): 0
Plant response rating, Redroot pigweed (pigweed; [5]): 6
Redroot pigweed plant response rating (pigweed; [6]): 6
Redroot pigweed plant response rating (pigweed; [7]): 3
Redroot pigweed plant response rating (pigweed; [8]): 6
Corn plant response rating (corn; [1]): 0
Corn plant response rating (corn; [2]): 0
Corn plant response rating (corn; [3]): 0
Plant response rating, Corn (corn; [4]): 0
Plant response rating, Corn (corn; [5]): 0
Corn plant response rating (corn; [6]): 0
Corn plant response rating (corn; [7]): 0
Corn plant response rating (corn; [8]): 0
Barnyardgrass plant response rating (bamyardgrass; [1]): 0
Barnyardgrass plant response rating (bamyardgrass; [9]): 0
Barnyardgrass plant response rating (bamyardgrass; [10]): 0
Plant response rating, Barnyardgrass (bamyardgrass; [11]): 0
Barnyardgrass plant response rating (bamyardgrass; [12]): 7
Barnyardgrass plant response rating (bamyardgrass; Rate 1000 g/ha, Pre-emergence (as headed), scale 0 to 10): 0
Barnyardgrass plant response rating (bamyardgrass; Rate 2000 g/ha, Pre-emergence (as headed), scale 0 to 10, 0 no effect, 10 complete control): 3
Barnyardgrass plant response rating (bamyardgrass; [13]): 3
Blackgrass plant response rating (blackgrass; [1]): 0
Blackgrass plant response rating (blackgrass; [2]): 3
Blackgrass plant response rating (blackgrass; [3]): 2
Plant response rating, Blackgrass (blackgrass; [4]): 4
Plant response rating, Blackgrass (blackgrass; [5]): 4
Blackgrass plant response rating (blackgrass; [6]): 6
Blackgrass plant response rating (blackgrass; [7]): 3
Blackgrass plant response rating (blackgrass; [8]): 7
Crabgrass plant response rating (crabgrass; [1]): 0
Crabgrass plant response rating (crabgrass; [2]): 5
Crabgrass plant response rating (crabgrass; [3]): 7
Plant response rating, Crabgrass (crabgrass; [4]): 9
Plant response rating, Crabgrass (crabgrass; [5]): 9
Crabgrass plant response rating (crabgrass; [6]): 10
Crabgrass plant response rating (crabgrass; [7]): 2
Crabgrass plant response rating (crabgrass; [8]): 9
Rape plant response rating (rape; [1]): 0
Rape plant response rating (rape; [2]): 2
Rape plant response rating (rape; [3]): 0
Plant response rating, Rape (rape; [4]): 0
Plant response rating, Rape (rape; [5]): 5
Rape plant response rating (rape; [6]): 5
Rape plant response rating (rape; [7]): 0
Rape plant response rating (rape; [8]): 4
